Experimental data: patent US20050101542A1, “Combination therapy for controlling appetites” (Regents of the University of California, priority 2002, published 2005)
“Also recorded” adds a separate entry of the source. Read-outs that look alike come from different tables or passages of the source.

Experiments:
[1] = system: Soleus muscle; assay: [14C]oleate oxidation to CO2 in soleus muscle; assay type: cell-based, rat
Description: This example illustrates the effect of OEA on fat metabolism and methods for studying the same. Oleoylethanolamide (OEA) decreases body weight not only by suppressing appetite, but also by possibly enhancing body fat catabolism. The effects of OEA on fatty acid oxidation in major body-fat burning tissues (soleus muscle, liver, cultured cardiac myocytes and astrocytes) was examined. […] In addition, OEA induces a significant mobilization of triacylglycerol stores from primary white adipose tissue cells. Table 4 details the methods and effects of OEA on fatty acid oxidation in these cells. Structure-activity relationship experiments provide evidence that the effect of OEA on skeletal muscle fatty acid oxidation is specific (FIG. 8).

[2] = system: PPAR-α-regulated genes; assay: Real time quantitative PCR of gene expression in mouse intestine and liver; assay type: in vivo; conditions: for expression of PPAR-α-regulated genes (PPAR-α, FAT/CD36, FATP1): jejunum of wild-type mice, OEA or oleic acid 10, Wy-14643 30 mg kg^−1 i.p.
Method: (§1) Tissues were stored in RnaLater™ (Ambion), extracted total RNA with TRIzol™ (Invitrogen) and quantified it with Ribogreen™ (Molecular Probes). cDNA was synthesized by using SuperscriptII RNase H-reverse transcriptase (Invitrogen).
(§2) Reverse transcription of total RNA (2 μg) was performed using Oligo(dT)12-18 primer (0.2 μg) for 50 min at 42° C. Real Time Quantitative (RTQ) PCR was conducted using an ABI PRISM 7700 sequence detection system (Applied Biosystems). Primer/probe sets were designed using the Primer Express™ software and gene sequences available from the Genebank™ database. Primers and fluorogenic probes were synthesized by TIB (Adelphia). The primer/probe sequences for the mouse genes were:
(§3) RNA levels were normalized by using glyceraldehyde 3-phosphate dehydrogenase (GAPDH) as an internal standard. mRNA levels were measured by generating six-point serial standard curves using mouse total RNA. Estimates of relative mRNA abundance (in arbitrary units) were made by using the CT value (Schmittgen et al., 2000). Relative quantifications of RNAs of interest were made by using the 2^ΔCT formula, in which ΔCT was calculated by subtracting the CT value for GAPDH from the CT value for the gene of interest. This formula was validated for each primer/probe set by using six-point serial standard curves.

[3] = molecular target: T1, human PPARα (Homo sapiens, UniProt Q07869); assay: GAL4 chimeric receptor transactivation assay in HeLa cells, PPARα; assay type: cell-based; conditions: for PPARα activation: HeLa transactivation assay
T1 construct: expressed in transfected cells; host or cells: HeLa (clonal reporter line HLR, stably transfected with pFA-PPARα)
T1 sequence (Q07869 239-466 limits assumed): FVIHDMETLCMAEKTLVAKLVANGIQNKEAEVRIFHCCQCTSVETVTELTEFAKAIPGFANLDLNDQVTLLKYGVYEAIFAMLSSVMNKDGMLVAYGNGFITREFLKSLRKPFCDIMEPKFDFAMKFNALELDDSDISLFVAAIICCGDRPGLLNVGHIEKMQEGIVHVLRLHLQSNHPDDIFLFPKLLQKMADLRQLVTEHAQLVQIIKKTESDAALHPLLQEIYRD
Method: Eighteen hours following transfection, the culture media was replaced with supplemented DMEM containing hygromycin (100 μg-ml^−1, Calbiochem). After 4 weeks in culture, the surviving clones were isolated and analyzed by luciferase assay. […] The cells were cultured in supplemented DMEM containing hygromycin and G418. For transactivation assays, cells were seeded in 6-well plates (50,000 cells per well) and incubated for 7 hours in supplemented DMEM containing hygromycin and G418, plus appropriate concentrations of test compounds. Dual-luciferase reporter assay system (Promega) and an MLX Microtiter® plate luminometer (Dynex) were used to determine luciferase activity in cell lysates.

[4] = system: iNOS; assay: Transrepression of iNOS expression in mouse jejunum; assay type: in vivo; conditions: jejunum of C57BL/6J mice; OEA or oleic acid 10, Wy-14643 30 mg kg^−1 i.p.
Method: as §1, §2, §3

[5] = Acute food intake in 24-h food-deprived rats, i.p. dosing; assay type: in vivo, rat; conditions: 24-h food-deprived rats, i.p.
Method: Feeding experiments. Acute experiments. Food intake was measured in 24-h food-deprived rats (Navarro, et al., J. Neurochem., 67:1982-1991 (1996)), administering drugs 15 min before food presentation. Subchronic experiments. Ad libitum fed rats received vehicle injections for three days. On day four, the animals were divided in two equal groups and gave them daily injections of vehicle or OEA (5 mg per kg at 1900 h) for 7 consecutive days, while measuring body weight, food intake and water intake.
The effects of systemically administered OEA or an OEA-like compound or OEA-like modulator on food intake in rats can be assessed using a 24 h fast. […] To define the selectivity of this response, various OEA analogs were evaluated for their ability to produce hypophagia.

[6] = Acute feeding experiments in free-feeding mice (C57BL/6J, wild-type, PPARα-null); assay type: in vivo, mouse; conditions: for food intake in C57BL/6J mice: i.p., Wy-14643 40, GW7647 20, clofibrate 25-100, GW501516 1-10, ciglitazone 15 mg kg^−1; for feeding in PPARα-deficient mice: OEA 10, Wy-14643 40, d-fenfluramine 4 mg-kg^−1, CCK-8 25 μg-kg^−1, i.p.; for meal pattern analysis (eating latency, meal size, post-meal interval): C57BL/6J mice
Method: Acute experiments. Drugs or appropriate vehicles (saline, for CCK-8 and d-fenfluramine; dimethylsulfoxide/saline, 70/30, for all other agents; 4 ml-kg^−1; i.p.) were administered at 5:00-5:30 PM to free-feeding mice, which were habituated to the experimental setting.

[7] = Food intake studies in food-deprived or partially satiated rats (i.p. or i.c.v.), Example 8; conditions: for food intake in partially satiated rats, systemic (i.p.) administration: 24 h food-deprived, allowed to eat 60 min before drug; for food intake in 24 h food-deprived rats, systemic (i.p.) administration: anandamide or WIN 55,212-2 0.1-2 mg/kg
Method: (§4) Drugs were administered by i.p. injection 15 min prior to food presentation in a volume of 1 ml/kg. For i.c.v. administration the obturator was removed from the guide cannula and an 8-mm injector (30-gauge stainless steel tubing) that was connected to 70 cm of calibrated polyethylene-10 tubing was lowered into the ventricle. The tubing was then raised until flow began and 5 μl of drug solution were infused over a 30-60 s period. The injector was left in the guide cannula for additional 30 s and then removed. The stylet was immediately replaced. Animals were tested 5 min after injections. The i.c.v. cannula placements were evaluated after each experiment by dye injection. Only those rats with proper i.c.v. placements were included in the data analysis.
(§5) The animals were then food-deprived for 24 h, with free access to water. 15 min after drug administration, the animals were returned to their home cage, where a can with a measured amount of food (usually 30-40 g) a bottle containing 250 ml of fresh water were placed. Food pellets and food spillage were weighed at 60,120 and 240 min after starting the test, and the amount of food eaten was recorded. At the end of the test, the amount of water consumed was also measured. For partial satiation of animals, 24 h food-deprived rats were allowed to eat from the can during 1 h. The can was retired and intake was recorded. 15 min after drug injections, the food was again presented, and the amount consumed was recorded hourly for the following 4 h.

[8] = Capsaicin sensory deafferentation and feeding, Example 8; assay type: in vivo, rat; conditions: CCK-8 10 μg/kg, CP 93129 1, WIN 55,212-2 2, anandamide 2, SR141716A 3 mg/kg, i.p.
Method: Capsaicin was administered subcutaneously (12.5 mg/ml, Kaneko, et al., Am. J. Physiol., 275:G1056-G1062 (1998)) in rats anesthetized with ethyl ether. The total dose of capsaicin (125 mg/kg) was divided into three injections (25 mg/kg in the morning and 50 mg/kg in the afternoon of the first day, 50 mg/kg on the 2nd day). Control rats received vehicle injections. […] Water intake (in ml/4 hr) was: vehicle 13.6±1.4; capsaicin rats 24.0±1.9, P<0.01 (n=12).
The can was retired and intake was recorded.

[9] = Open field test; assay type: in vivo, rat
Method: Rats were habituated to the field for 10 min the day before testing. On the experimental day, the animals were placed in the center of the field and locomotor activity (number of lines crossed) and exploratory behavior (number of rearings and time spent in the center of the field) were scored for 5 min. All the experiments were performed 60 min after drug injections, and behavior was scored by trained observers blind to experimental conditions.

[10] = rat, in vivo
Method: as §4, §5

[11] = Food intake in vagotomized or capsaicin-treated rats, Example 3; assay type: in vivo, rat; conditions: for food intake after vagotomy or capsaicin treatment: rats, OEA 10, Wy-14643 40 mg kg^−1 i.p.; for food intake 30 min / food intake 60 min / food intake 120 min / food intake 240 min: 24-h food-deprived, Wy-14643 40 mg kg^−1 i.p.
[12] = Food intake in capsaicin-treated (sensory deafferented) rats, Example 2; assay type: in vivo, rat; conditions: OEA 10 mg per kg i.p.
Method: FAE were dissolved in dimethylsulphoxide (DMSO) and administered in 70% DMSO in sterile saline (acute treatments) Or 5% Tween 80/5% propylenglycol in sterile saline (subchronic treatments) (1 ml per kg, i.p.). Capsaicin was administered in 10% Tween 80/10% ethanol/80% saline; SR141716A, SR144528, CCK-8 and CP-93129 in 5% Tween 80/5% propylenglycol/90% saline (1 ml per kg, i.p.).

For `CCCCCCCC/C=C\CCCCCCCC(=O)O` [oleic acid], the “mimicry of the OEA effect on skeletal muscle fatty acid oxidation” value (“mimicry of the OEA effect” for short) [1] was “not”, the “expression of PPAR-α-regulated genes (PPAR-α, FAT/CD36, FATP1)” value [2] was “not” and the EC50 [3] was 10.3 ± 0.21 µM. For the same compound, the iNOS expression [4] was “ineffective” and the “food intake (hypophagia)” value [5] was “no effect”.

For `Cc1cc(SCc2sc(-c3ccc(C(F)(F)F)cc3)nc2C)ccc1OCC(=O)O` [GW501516, [2-Methyl-4-[4-methyl-2-(4-trifluoromethyl-phenyl)-thiazol-5-ylmethylsulfanyl]-phenoxy}-acetic acid], the “food intake in C57BL/6J mice” value [6] was “did not affect feeding; also recorded: Lack of effect”.

In the case of `Cc1c(C(=O)NN2CCCCC2)nn(-c2ccc(Cl)cc2Cl)c1-c1ccc(Cl)cc1` [SR141716A, N-piperidino-5-(4-chlorophenyl)-1-(2,4-dichlorophenyl)-4-methylpyrazole-3-carboxamide], the “food intake in partially satiated rats, systemic (i.p.) administration” value [7] is reported as “dose-dependent reduction of food intake”, the “food intake in 24 h food-deprived rats, systemic (i.p.) administration” value [7] is reported as “dose-dependent reduction of food intake; also recorded: reduced food intake” and the “food intake after central (i.c.v.) administration” value (from here on “food intake after central”) [7] is reported as “no effect; also recorded: did not affect food intake”. The “effect of capsaicin treatment on the drug's feeding response” value (“effect of capsaicin treatment” for short) [8] was “loss and abolishes the reduction of food intake”, the “rearing frequency in the open field” value ([9]; i.c.v. SR141716A 10 μg, i.c.v. vehicle 16.6±3.1) was 4.9±1.1 number of events per 5 min and the “rearing frequency in the open field” value ([9]; i.p. SR141716A 3 mg/kg, i.p. vehicle 17.9±2.3) was 9.4±2.0 number of events per 5 min. The “exploratory behavior in the open field” value ([9]; irrespective of the administration route) was “reduced exploratory behavior”.

For `CCCCC/C=C\C/C=C\C/C=C\C/C=C\CCCC(=O)NCCO` [anandamide, arachidonylethanolamide], the “motor effect at the highest central dose” value [10] was “motor impairment”, the “mimicry of the OEA effect” value [1] was “not” and the “food intake in partially satiated rats, systemic (i.p.) administration” value [7] was “significant and prolonged hyperphagia”. For the same compound, the “food intake in partially satiated rats, systemic (i.p.) administration” value ([7]; listed as Anandamide) was “elicited hyperphagia”, the “food intake in 24 h food-deprived rats, systemic (i.p.) administration” value [7] was “no effect” and the “food intake after central” value [7] was “no effect on feeding”. The “food intake after central” value ([7]; listed as Anandamide) was “no effect”, the PPARα activation [3] was “ineffective” and the “effect of capsaicin treatment” value [8] was “loss of the hyperphagic effects”. For the same compound, the “food intake (hypophagia)” value [5] was “no effect”.

In the case of `CCOC(=O)C(C)(C)Oc1ccc(Cl)cc1` [clofibrate, 2-(4-chlorophenoxy)-2-methylpropanoic acid, ethyl ester], the “food intake in C57BL/6J mice” value [6] is reported as “did not”.

For `Cc1c(C(=O)c2cccc3ccccc23)c2cccc3c2n1[C@H](CN1CCOCC1)CO3` [WIN 55,212-2], the “motor effect at the highest central dose” value ([7]; 10 μg i.c.v.) was “motor impairment”, the immobility ([7]; 10 mg/kg i.p.) was “profound immobility” and the “food intake in partially satiated rats, systemic (i.p.) administration” value [7] was “significant and prolonged hyperphagia; also recorded: promoted hyperphagia”. For the same compound, the “food intake in 24 h food-deprived rats, systemic (i.p.) administration” value [7] was “no effect”, the “food intake after central” value [7] was “no effect on feeding” and the “effect of capsaicin treatment” value [8] was “loss of the hyperphagic effects; also recorded: did not produce hyperphagia”.

For `CCCCCCCCCCCCCC(=O)NCCO` [myristylethanolamide], the PPARα activation [3] was “ineffective”.

With `CCN[C@@H](C)Cc1cccc(C(F)(F)F)c1` [d-fenfluramine] the “feeding in PPARα-deficient mice” value [6] was “responded normally” and the “food intake after vagotomy or capsaicin treatment” value [11] was “not”.

With `CCCCCCCCCCCCCCCCCC(=O)NCCO` [stearylethanolamide] the PPARα activation [3] was “did not elicit a response”.

In the case of `O=c1ccc2[nH]cc(C3=CCNCC3)c2[nH]1` [CP-93129], the “feeding response in capsaicin-treated rats” value [12] is reported as “responded normally” and the “effect of capsaicin treatment” value [8] is reported as “not”.

In the case of `CC(C)(Sc1ccc(CCN(CCCCC2CCCCC2)C(=O)NC2CCCCC2)cc1)C(=O)O` [GW7647, 2-(4-{2-[3-Cyclohexyl-1-(4-cyclohexyl-butyl)-ureido]-ethyl}-phenylsulfanyl)-2-methyl-propionic acid], the “meal pattern analysis (eating latency, meal size, post-meal interval)” value [6] is reported as “selective prolongation of eating latency” and the “food intake in C57BL/6J mice” value [6] is reported as “inhibited food intake”.

For `Cc1cccc(Nc2cc(Cl)nc(SCC(=O)O)n2)c1C` [Wy-14643], the “expression of PPAR-α-regulated genes (PPAR-α, FAT/CD36, FATP1)” value [2] was “mimicked the effects of OEA”, the “gene expression in mice deficient in PPAR-α” value ([2]; jejunum, OEA 10, Wy-14643 30 mg kg^−1 i.p.) was “did not stimulate gene expression” and the iNOS expression [4] was “significantly decreased”. For the same compound, the “meal pattern analysis (eating latency, meal size, post-meal interval)” value [6] was “selective prolongation of eating latency”, the “feeding in PPARα-deficient mice” value [6] was “did not respond” and the “food intake in C57BL/6J mice” value [6] was “inhibited food intake”. For the same compound, the “food intake 30 min” value ([11]; capsaicin-treated rats) was 2.2 ± 1.2, the “food intake 60 min” value ([11]; capsaicin-treated rats) was 3.7 ± 1.6 and the “food intake 120 min” value ([11]; capsaicin-treated rats) was 4.9 ± 1.5. For the same compound, the “food intake 240 min” value ([11]; capsaicin-treated rats) was 7.8 ± 1.9, the “food intake 30 min” value ([11]; control rats) was 2.3 ± 1.3 and the “food intake 60 min” value ([11]; control rats) was 3.6 ± 1.2. The “food intake 120 min” value ([11]; control rats) was 5.8 ± 1.3, the “food intake 240 min” value ([11]; control rats) was 6.4 ± 1.8 and the “food intake after vagotomy or capsaicin treatment” value [11] was “prevented the hypophagic effects”.

In the case of CCK-8, the “feeding response in capsaicin-treated rats” value [12] is reported as “failed to respond”, the “effect of capsaicin treatment” value [8] is reported as “abolished the anorexic response; also recorded: abolished the anorexic effect” and the “feeding in PPARα-deficient mice” value [6] is reported as “responded normally”.

With `CCCCCCCCCCCCCCCC(=O)NCCO` [Palmitoylethanolamide, palmitoylethanolamide] the “mimicry of the OEA effect” value [1] was “only partially” and the “food intake (hypophagia)” value [5] was “active but significantly less potent than OEA”.
